# Reference: patent US20230272077A1, “PD-1 SIGNAL INHIBITOR COMBINATION THERAPY” (KYOTO UNIVERSITY, priority 2015, published 2023)
# Entries after “also recorded” stand apart in the source; their conditions may differ.
# Tests used:
# [1] = test system: PGC-1α; assay: PGC-1α expression (Western blotting, real-time RT-PCR); type: in vivo, mouse; details: combination therapy together with PD-L1 antibody
# Description: RNA was isolated from CD8^+ T cells or tumor cells with the RNeasy Mini Kit (Qiagen), followed by cDNA synthesis by reverse transcription. Real-time PCR for PGC-1α was performed using the following primers: Forward […] (SEQ ID NO: 1) and Reverse […] (SEQ ID NO: 2). To analyze the expression levels of genes associated with apoptosis and mitochondrial energy metabolism, RT2 Profiler PCR Array Gene Expression Kit PAMM-012Z or PAMM-008Z (Qiagen) was used. The list of genes included in this assay can be found in www.sabiosciences.com/Apoptosis.php.
# CD8^+ T cells were isolated using mouse CD8 Microbeads (Miltenyi Biotec). After washing with PBS twice, 2×10^6 cells were solubilized in a lysis buffer containing 30 mM Tris-HCl (pH.7.4), 150 mM NaCl, 10% glycerol, 0.1% SDS, 1% Triton-X-100, 0.05% Na-Doc, 5 mM EDTA (pH.8.0), protease inhibitor mixture (Roche Molecular Biochemicals) and phosphatase inhibitors (Nacalai Tesque). After measurement of protein concentrations by DC protein assay (Bio-Rad), 4 μg of proteins was mounted on 4 to 20% gradient Mini-PROTEAN TGX Gels (Bio-Rad) and electroblotted onto nitrocellulose membranes, which were then incubated in a blocking buffer of TBS containing 1% BSA. Primary antibody incubations were carried out overnight at 4° C. in blocking buffer. After washing, secondary antibody incubations were carried out at room temperature for 40 min in blocking buffer. Blots were developed with enhanced chemiluminescence (Amersham Pharmacia). Primary antibodies recognizing the following proteins were used: Phospho-mTOR (P-mTOR) (Cat #5536), Phospho-AMPKa (P-AMPK) (#2535), Phospho-p70 S6 Kinase (P-S6K) (#9205), 4E-BP1 (#9644), Phospho-Acetyl-CoA Carboxylase (P-ACC) (#3661) and SIRT1 (#9475). All the primary antibodies were obtained from Cell Signaling Technology. An antibody recognizing PGC-1α (SC-13067) was obtained from Santa Cruz.
# [2] = test system: MC38; assay: Mouse therapy model, MC38-bearing mice (tumor volume, survival); type: in vivo; details: MC38-bearing mice; for animal survival, triple combination of mTOR activator, AMPK activator and PD-L1 antibody / antitumor effect of triple combination of mTOR activator, AMPK activator and PD-L1 antibody: both activators with PD-L1 antibody; for enhancement of antitumor effect of PD-L1 antibody (tumor volume) / survival rate: reagent combined with PD-L1 antibody vs PD-L1 antibody alone; for antitumor effect when administered alone: reagent alone, no PD-L1 antibody, tumor volume
# Description: (§1) MC38 (5×10^5) and MethA (5×10^5) cells were intradermally injected on the right flank. MC38 was inoculated into C57BL/6 mice and MethA was inoculated into BALB/c mice. For monotherapy, mice were intraperitoneally injected with 150 μg of PD-L1 mouse antibody (1-111A) (prepared by the laboratory of the present inventors) 5 days after the tumor inoculation. Therapy with PD-L1 antibody alone was repeated three times every 5 days. For combination therapy, administration of PD-L1 antibody and chemical agents started 7 days after tumor injection. Chemical agents were injected at a regular interval of 2 days and PD-L1 antibody at a regular interval of 5 days (shown in FIG. 3b). Tumors were measured on every alternate day, and tumor volumes were calculated using the formula for typical ellipsoid, π×(length×breadth×height/6).
# (§2) The following chemical reagents were used at the indicated concentrations for combination therapy. AMPK activator: A769662, 6 mg/kg (Abcam); mTOR activator: MHY1485, 3 μg/kg (Sigma-Aldrich); uncoupler: carbonylcyanide-p-trifluoromethoxyphenylhydrazone (FCCP), 1.2 mg/kg (Abcam); uncoupler: 2,4-Dinitrophenol (DNP), 1.7 mg/kg (Aldrich); SIRT1 activator: resveratrol, 0.5 mg/kg (Abcam); ROS scavenger: Mn (III) tetrakis (4-benzoic acid) porphyrin (MnTBAP), 1.25 mg/kg (Calbiochem); ROS generator: tert-butyl hydroperoxide solution (Luperox TBH70X), 200 μL/kg (Sigma-Aldrich); ATP synthase inhibitor: oligomycin, 250 μg/kg (Sigma-Aldrich); paraquat 2 mg/kg (Nakalai Tesque); oltipraz 1.9 mg/kg (Sigma); bezafibrate 1 mg/kg (ChemCruz).
# All reagents were freshly prepared just before use. Each reagent was dissolved in the solvent indicated in the instructions. Note that the AMPK activator, mTOR activator, uncouplers and SIRT1 activator were prepared from fresh unused vials in each series of experiments. Dissolved reagents were diluted in PBS, and a 200 l aliquot was injected per mouse.
# Murine colon adenocarcinoma MC38 cells (5×10^5) were inoculated into C57BL/6 mice. After 7 days, anti-PD-L1 antibody (1-111A, 150 μg) and AMPK inhibitor (Compound C: 200 μg in BBS, 200 μL) were administered intraperitoneally. Anti-PD-L1 antibody was administered 3 times at a regular interval of 6 days; Compound C (C.C) was administered 7 times at a regular interval 2 days.
# MC38 cells (5×10^5) were inoculated into C57BL/6 mice. After 7 days, anti-PD-L1 antibody (1-111A, 150 μg) and PGC-1α/transcription factor complex activator (2-(4-{2-[(4-chlorobenzoyl)amino]ethyl}phenoxy)-2-methylpropanoic acid (bezafibrate): 10 ug in PBS, 200 ul) were administered intraperitoneally. Anti-PD-L1 antibody was administered 3 times at a regular interval of 6 days; bezafibrate was administered 7 times at a regular interval 2 days.
# [3] = test system: MethA; assay: Mouse therapy model, MethA-transplanted BALB/c mice (tumor volume); type: in vivo; details: MethA in BALB/c mice, combined with PD-L1 antibody
# Description: as §1, §2
# MethA cells (5×10^5) were inoculated into BALB/c mice. After 7 days, anti-PD-L1 antibody (1-111A, 80 μg) and Foxo1 inhibitor (5-amino-7-(cyclohexylamino)-1-ethyl-6-fluoro-4-oxo-1,4-dihydroquinoline-3-carboxylic acid, Calbiochem) (2 mg/kg) were administered intraperitoneally.
# Fibrosarcoma MethA (Cell Resource Center for Biomedical Research) cells (5×10^5) were inoculated into BALB/c mice. After 7 days, anti-PD-L1 antibody (1-111A, 60 μg) and Aminoleban (Otsuka Pharmaceutical, 400 μl/mouse) were administered.
# [4] = test system: tumor cells; assay: Phenotypic and transcription profile analysis of tumor cells from mice treated with reagent alone; parameters: species or system mouse; details: tumor cells from mice treated with reagent alone in vivo
# Excerpt: FIG. 12. […] After enzymatic digestion, tumor cells were sorted with a cell isolation kit capable of excluding non-tumor cells. The isolated tumor cells were further purified with Aria and used in the following experiments. b) Tumor cells were stained with antibodies targeting PD-L1, MHC class I, CD155 (ligand of TIGIT), and VISTA or with dyes for mitochondrial mass, membrane potential, and superoxide. c) Expression levels of genes associated with mitochondrial energy metabolism and apoptosis were examined using RT^2 profiler PCR Kit.
# For analyzing draining lymph nodes, cells from axillary, brachial, and inguinal lymph nodes on the right side of tumor-inoculated mice were harvested and mixed. Averaged cell numbers per one lymph node were used as absolute cell numbers. For tumor analysis, tumor tissues were minced into 2- to 3-mm pieces with scissors and digested with collagenase type IV (Thermo Fisher Scientific) using a gentle MACS Dissociator (Miltenyi Biotec). The numbers of tumor cells per mg were used as absolute numbers. Tumor cells were isolated from digested tumor tissues using a Tumor Cell Isolation Kit, mouse (Miltenyi Biotec). This kit purifies tumor cells by excluding lymphocytes, red blood cells, fibroblasts, endothelial cells and tumor-associated stromal cells. The resultant tumor cell population was further isolated/purified with FACS Aria (BD Biosciences). […]
# [5] = test system: IFN-γ; assay: Intracellular IFN-γ staining of CD8+ T cells from digested tumor tissues; type: in vivo, mouse; details: CD8+ T cells in tumors; combined with PD-L1 antibody
# Description: (§3) FIG. 15. […] Data represent the means±SEM of five mice. *p<0.05, **p<0.01, one-way ANOVA.
# (§4) The following antibodies recognizing the indicated antigens were used: CD44 (1M7), CD45.2 (104), CD45.1 (A20), CD8 (53-6.7), CD62L (MEL-14), T-bet (4B/O) and IFN-7 (XMG1.2), MHC class I (AF6-88.5), CD155 (Tx56) and VISTA (MIH63) from BioLegend; p-AMPK (EPR5683) from Ancam; p-mTOR (MRRBY), Eomes (Danllmag) and PD-L1 (M1H5) from eBioscience. All flow cytometry experiments were performed on a FACS Canto II (BD Biosciences) and analyzed using FlowJo software (FLOWJO, LLC). For assessment of intracellular phosphoproteins, cells were permeabilized with 0.5% Triton-X and fixed with 1.5% PFA before staining. Determination of mitochondrial mass, membrane potential, mitochondrial superoxide and cellular ROS was performed using MitoTracker Green, Mito-Tracker Deep Red, MitoSOX Red, and CellROX Green reagents, respectively (all from Life Technologies). These dyes were added to cells to a final concentration of 0.125 μM, 0.125 μM, 5.0 μM and 0.625 μM, respectively, and incubated at 37° C. in a 5% CO2 humidified incubator for 30 min.
# [6] = test system: T-bet and Eomes; assay: T-bet and Eomes expression by flow cytometry in DLN CD8+ T cells; type: in vivo, mouse; details: combined with PD-L1 antibody
# Description: as §3, §4
smiles,measurement,setting,value
"N#Cc1c(O)c2c(-c3ccc(-c4ccccc4O)cc3)csc2[nH]c1=O [AMPK activator, 6,7-dihydro-4-hydroxy-3-(2′-hydroxy[1,1′-biphenyl]-4-yl)-6-oxo-thieno[2,3-b]pyridine-5-carbonitrile]",expression levels of PGC-1α protein and mRNA,[1],increased
same,"animal survival, triple combination of mTOR activator, AMPK activator and PD-L1 antibody",[2],improved animal survival
same,"antitumor effect of triple combination of mTOR activator, AMPK activator and PD-L1 antibody",[2],further enhanced the effect of PD-L1 antibody
same,enhancement of antitumor effect of PD-L1 antibody (tumor volume),[2],moderately augmented the efficacy of PD-1 blockade therapy in the early phase
"CCn1cc(C(=O)O)c(=O)c2c(N)c(F)c(NC3CCCCC3)cc21 [Foxo1 inhibitor, 5-amino-7-(cyclohexylamino)-1-ethyl-6-fluoro-4-oxo-1,4-dihydroquinoline-3-carboxylic acid]",enhancement of antitumor effect of PD-L1 antibody (tumor volume),[3],enhances the efficacy of anti-PD-L1 antibody therapy
same,enhancement of antitumor effect of PD-L1 antibody (tumor volume),[3]; listed as AS1842856,Synergistic effect
"CC(C)(C)OO [Luperox, tert-butyl hydroperoxide]",changes in immune-regulatory surface markers and transcriptional profiles of tumor cells,[4],no significant changes; also recorded: little effect on tumor cells in vivo
same,"antitumor activity of triple combination of PD-L1 antibody, DNP and Luperox",[2]; DNP and Luperox both with PD-L1 antibody,stronger antitumor activity; also recorded: Antitumor effect is enhanced
same,antitumor effect when administered alone,[2],no antitumor activity was observed
same,enhancement of antitumor effect of PD-L1 antibody (tumor volume),[2],remarkably enhanced the antitumor effect; also recorded: Synergistic effect
same,survival rate,[2],improved the survival rate
"O=C(O)c1ccc(-c2c3nc(c(-c4ccc(C(=O)O)cc4)c4ccc([n-]4)c(-c4ccc(C(=O)O)cc4)c4nc(c(-c5ccc(C(=O)O)cc5)c5ccc2[n-]5)C=C4)C=C3)cc1.[Mn+3] [MnTBAP, Mn (III) tetrakis (4-benzoic acid) porphyrin]",effect of ROS scavenger on combination therapy using PD-L1 antibody and uncouplers,[2]; added to PD-L1 antibody + FCCP or DNP,inhibited
"Oc1ccc(/C=C/c2cc(O)cc(O)c2)cc1 [Resveratrol, trans-3,5,4′-trihydroxystilbene]",antitumor effect when administered alone,[2],no tumor growth inhibitory effect was observed
same,enhancement of antitumor effect of PD-L1 antibody (tumor volume),[2],remarkably reduced tumor sizes; also recorded: remarkable tumor inhibitory effect
same,survival rate,[2],improved the survival rate
"CC(C)(Oc1ccc(CCNC(=O)c2ccc(Cl)cc2)cc1)C(=O)O [bezafibrate, 2-(4-{2-[(4-chlorobenzoyl)amino]ethyl}phenoxy)-2-methylpropanoic acid]",IFN-γ production,[5],increased; also recorded: up-regulated
same,Eomes expression,[6],reduced Eomes
same,T-bet expression,[6],increased T-bet; also recorded: activated T-bet; also recorded: up-regulated
same,enhancement of antitumor effect of PD-L1 antibody (tumor volume),[2],enhanced the tumor growth inhibitory effect of PD-L1 antibody; also recorded: synergize with PD-L1 antibody; also recorded: Synergistic effect
same,survival rate,[2],improved the survival rate
same,enhancement of antitumor effect of PD-L1 antibody (tumor volume),[2]; listed as PGC-1α/transcription factor complex activator,enhances the efficacy of anti-PD-L1 antibody therapy
"O=[N+]([O-])c1ccc(Nc2nc(N3CCOCC3)nc(N3CCOCC3)n2)cc1 [mTOR activator, 4,6-Di-4-morpholinyl-N-(4-nitrophenyl)-1,3,5-triazin-2-amine]",expression levels of PGC-1α protein and mRNA,[1],increased
same,"animal survival, triple combination of mTOR activator, AMPK activator and PD-L1 antibody",[2],improved animal survival
same,"antitumor effect of triple combination of mTOR activator, AMPK activator and PD-L1 antibody",[2],further enhanced the effect of PD-L1 antibody
same,enhancement of antitumor effect of PD-L1 antibody (tumor volume),[2],moderately augmented the efficacy of PD-1 blockade therapy in the early phase
"C[n+]1ccc(-c2cc[n+](C)cc2)cc1.[Cl-].[Cl-] [paraquat, 1,1′-dimethyl-4,4′-bipyridinium dichloride]",enhancement of antitumor effect of PD-L1 antibody (tumor volume),[2],enhanced the effect for PD-1 blockade
same,enhancement of antitumor effect of PD-L1 antibody (tumor volume),[3],enhanced the antitumor effect of PD-L1 antibody
